Source: patent US11254686B1 (Corvus Pharmaceuticals, Inc., priority 2017, dated 2022)
pIC50: −log10 of the molar value.

Assays:
adenosine A1 receptor [1] = biological target: T1, adenosine A1 receptor (Homo sapiens (Human), UniProt P30542); test: A1 cAMP IC50 assay (Table 1); format: biochemical
adenosine A2B receptor = adenosine A2B receptor (Homo sapiens (Human), UniProt P29275); test: Adenosine receptor activity assay (Table 1), A2B activity; format: biochemical; settings: for Ratio: A2A activity to A2B activity (A2A/A2B); for pIC50: read-out: Ave A2B cAMP IC50
Sequence of adenosine A2B receptor (P29275 whole entry): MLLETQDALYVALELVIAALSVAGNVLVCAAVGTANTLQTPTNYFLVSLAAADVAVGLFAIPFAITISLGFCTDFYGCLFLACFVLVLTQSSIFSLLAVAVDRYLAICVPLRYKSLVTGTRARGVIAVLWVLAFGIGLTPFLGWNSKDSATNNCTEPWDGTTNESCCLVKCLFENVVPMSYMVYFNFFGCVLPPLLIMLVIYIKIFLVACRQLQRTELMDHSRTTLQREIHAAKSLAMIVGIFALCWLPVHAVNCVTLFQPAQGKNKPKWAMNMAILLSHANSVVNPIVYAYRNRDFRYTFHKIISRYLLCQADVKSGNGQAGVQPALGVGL

adenosine A2A receptor = adenosine A2A receptor (Homo sapiens (Human), UniProt P29274); test: Adenosine receptor activity assay (Table 1), A2A activity; format: biochemical; settings: read-out: Ave A2A cAMP IC50
Sequence of adenosine A2A receptor (P29274 whole entry): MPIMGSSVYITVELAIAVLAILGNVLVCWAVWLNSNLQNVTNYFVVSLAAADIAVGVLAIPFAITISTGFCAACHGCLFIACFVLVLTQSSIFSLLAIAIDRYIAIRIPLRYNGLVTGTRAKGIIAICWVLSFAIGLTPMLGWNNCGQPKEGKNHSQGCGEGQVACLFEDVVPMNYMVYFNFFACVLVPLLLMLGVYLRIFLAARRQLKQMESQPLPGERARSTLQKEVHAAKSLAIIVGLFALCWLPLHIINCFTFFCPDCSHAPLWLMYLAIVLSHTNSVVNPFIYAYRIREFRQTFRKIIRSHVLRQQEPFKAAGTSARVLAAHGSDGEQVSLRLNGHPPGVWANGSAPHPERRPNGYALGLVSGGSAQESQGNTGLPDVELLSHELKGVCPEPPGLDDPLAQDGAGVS

adenosine A3 receptor [2] = biological target: T2, adenosine A3 receptor (Homo sapiens (Human), UniProt P0DMS8); test: A3 cAMP IC50 assay (Table 1); format: biochemical
T2 sequence (P0DMS8 whole entry): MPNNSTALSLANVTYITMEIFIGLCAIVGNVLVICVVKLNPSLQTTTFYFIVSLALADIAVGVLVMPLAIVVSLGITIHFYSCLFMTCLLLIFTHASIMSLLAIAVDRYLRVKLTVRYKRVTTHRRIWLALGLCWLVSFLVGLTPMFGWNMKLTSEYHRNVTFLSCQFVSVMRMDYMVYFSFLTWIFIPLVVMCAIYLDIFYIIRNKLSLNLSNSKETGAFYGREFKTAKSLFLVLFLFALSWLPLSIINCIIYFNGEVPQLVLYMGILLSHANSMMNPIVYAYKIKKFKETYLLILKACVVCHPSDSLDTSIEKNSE

adenosine A1 receptor [3] = biological target: T1, adenosine A1 receptor; test: Adenosine receptor activity assay (Table 1), A1 cAMP; format: cell-based
adenosine A3 receptor [4] = biological target: T2, adenosine A3 receptor; test: Adenosine receptor activity assay (Table 1), A3 cAMP; format: cell-based

T1 sequence (P30542 whole entry): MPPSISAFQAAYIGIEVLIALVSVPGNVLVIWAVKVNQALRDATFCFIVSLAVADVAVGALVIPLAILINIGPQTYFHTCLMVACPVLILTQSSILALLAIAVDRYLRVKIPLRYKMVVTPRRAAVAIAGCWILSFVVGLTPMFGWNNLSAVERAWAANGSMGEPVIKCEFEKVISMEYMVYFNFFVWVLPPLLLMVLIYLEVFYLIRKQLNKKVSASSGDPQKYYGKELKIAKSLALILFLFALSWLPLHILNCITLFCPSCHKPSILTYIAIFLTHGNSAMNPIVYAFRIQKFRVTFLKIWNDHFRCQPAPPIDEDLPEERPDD

Row | pIC50 (adenosine A1 receptor [1]) | Ratio (adenosine A2B receptor) | pIC50 (adenosine A2B receptor) | pIC50 (adenosine A2A receptor) | pIC50 (adenosine A3 receptor [2]) | pIC50 (adenosine A1 receptor [3]) | pIC50 (adenosine A3 receptor [4]) | Compound
1 | < 6.30 | 3.93 | 7.30 to 8.00 | 6.30 to 7.00 | < 6.30 | – | – | C[C@H](Nc1nc(C(=O)N2CCC(F)(F)C2)c2sccc2n1)c1cccnc1 [Example Z13, (S)-(3,3-Difluoropyrrolidin-1-yl)(2-((1-(pyridin-3-yl)ethyl)amino)thieno[3,2-d]pyrimidin-4-yl)methanone]
2 | < 6.30 | 45.26 | > 8.00 | 6.30 to 7.00 | 7.00 to 7.30 | – | – | CNc1cc2nc(N[C@@H](C)c3ccccn3)nc(C(=O)N3CCC3)c2s1 [Example Z173, (S)-Azetidin-1-yl(6-(methylamino)-2-((1-(pyridin-2-yl)ethyl)amino)thieno[3,2-d]pyrimidin-4-yl)methanone]
3 | < 6.30 | 0.44 | 7.00 to 7.30 | 7.30 to 8.00 | 7.30 to 8.00 | – | – | C[C@H](Nc1nc(C(=O)N[C@H]2CCN(C(=O)OC(C)(C)C)C2)c2sccc2n1)c1ccccn1 [Example Z143, tert-Butyl (S)-3-(2-(((S)-1-(pyridin-2-yl)ethyl)amino)thieno[3,2-d]pyrimidine-4-carboxamido)pyrrolidine-1-carboxylate]
4 | 6.30 to 7.00 | 0.84 | 7.00 to 7.30 | 7.00 to 7.30 | 6.30 to 7.00 | – | – | C[C@H](Nc1nc(C(=O)NCc2ccc(OCC3CC3)nc2)c2sccc2n1)c1ccccn1 [Example Z107, (S)—N-((6-(Cyclopropylmethoxy)pyridin-3-yl)methyl)-2-((1-(pyridin-2-yl)ethyl)amino)thieno[3,2-d]pyrimidine-4-carboxamide]
5 | 7.00 to 7.30 | 6.93 | > 8.00 | 7.30 to 8.00 | < 6.30 | – | – | C[C@H](Nc1nc(C(=O)NC2CC2)c2sccc2n1)c1ccccn1 [Example Z192, (S)—N-Cyclopropyl-2-((1-(pyridin-2-yl)ethyl)amino)thieno[3,2-d]pyrimidine-4-carboxamide]
6 | < 6.30 | 22.59 | > 8.00 | 6.30 to 7.00 | 7.00 to 7.30 | – | – | CNc1cc2nc(N[C@@H](C)c3ccccn3)nc(C(=O)N3CC[C@@H](F)C3)c2s1 [Example Z175, ((R)-3-fluoropyrrolidin-1-yl)(6-(methylamino)-2-(((S)-1-(pyridin-2-yl)ethyl)amino)thieno[3,2-d]pyrimidin-4-yl)methanone]
7 | < 6.30 | 54.37 | 7.00 to 7.30 | < 6.30 | < 6.30 | – | – | CNc1cc2nc(N[C@@H](C)c3cccnc3)nc(C(=O)N3CC[C@@H](O)C3)c2s1 [Example Z172, ((R)-3-Hydroxypyrrolidin-1-yl)(6-(methylamino)-2-(((S)-1-(pyridin-3-yl)ethyl)amino)thieno[3,2-d]pyrimidin-4-yl)methanone]
8 | 6.30 to 7.00 | – | > 8.00 | 7.30 to 8.00 | < 6.30 | – | – | C[C@H](Nc1nc(C(=O)N[C@H]2C[C@@H](O)C2)c2sccc2n1)c1ccccn1 [Example Z158, N-((1s,3R)-3-Hydroxycyclobutyl)-2-(((S)-1-(pyridin-2-yl)ethyl)amino)thieno[3,2-d]pyrimidine-4-carboxamide]
9 | 6.30 to 7.00 | 1.80 | 7.30 to 8.00 | 7.30 to 8.00 | 6.30 to 7.00 | – | – | C[C@H](Nc1nc(C(=O)NC2CCCC2)c2sccc2n1)c1ccccn1 [Example Z180, (S)—N-Cyclopentyl-2-((1-(pyridin-2-yl)ethyl)amino)thieno[3,2-d]pyrimidine-4-carboxamide]
10 | < 6.30 | 25.53 | 7.30 to 8.00 | < 6.30 | < 6.30 | – | – | O=C(NC1CC(O)C1)c1nc(NCc2cncc(F)c2)nc2ccsc12 (centres unmarked) [Example Z184, 2-(((5-Fluoropyridin-3-yl)methyl)amino)-N-((1r,3r)-3-hydroxycyclobutyl)thieno[3,2-d]pyrimidine-4-carboxamide]
11 | < 6.30 | 48.67 | > 8.00 | 6.30 to 7.00 | 7.00 to 7.30 | – | – | CNc1cc2nc(N[C@@H](C)c3cccnc3)nc(C(=O)N3CC[C@H](F)C3)c2s1 [Example Z187, ((S)-3-Fluoropyrrolidin-1-yl)(6-(methylamino)-2-(((S)-1-(pyridin-3-yl)ethyl)amino)thieno[3,2-d]pyrimidin-4-yl)methanone]
12 | 6.30 to 7.00 | 1.24 | 7.00 to 7.30 | 7.00 to 7.30 | 6.30 to 7.00 | – | – | CCOc1ccc(CNC(=O)c2nc(N[C@@H](C)c3ccccn3)nc3ccsc23)cn1 [Example Z170, (S)—N-((6-ethoxypyridin-3-yl)methyl)-2-((1-(pyridin-2-yl)ethyl)amino)thieno[3,2-d]pyrimidine-4-carboxamide]
13 | – | 13.78 | 7.30 to 8.00 | 6.30 to 7.00 | – | 7.00 to 7.30 | < 6.30 | C[C@H](Nc1nc(C(=O)NCCc2ccc(CO)cc2)c2sccc2n1)c1cncc(F)c1 [Example Z384, (S)-2-((1-(5-Fluoropyridin-3-yl)ethyl)amino)-N-(4-(hydroxymethyl)phenethyl)thieno[3,2-d]pyrimidine-4-carboxamide]
14 | – | 51.97 | > 8.00 | 6.30 to 7.00 | – | < 6.30 | < 6.30 | COC1CN(C(=O)c2nc(N[C@@H](C)c3cncc(Cl)c3)nc3ccsc23)C1 [Example Z233, (S)-(2-((1-(5-Chloropyridin-3-yl)ethyl)amino)thieno[3,2-d]pyrimidin-4-yl)(3-methoxyazetidin-1-yl)methanone]
15 | – | 35.54 | > 8.00 | 7.00 to 7.30 | – | < 6.30 | 7.00 to 7.30 | CO[C@@H]1CCN(C(=O)c2nc(N[C@@H](C)c3cncc(F)c3)nc3cc(C)sc23)C1 [Example Z302, (2-(((S)-1-(5-Fluoropyridin-3-yl)ethyl)amino)-6-methylthieno[3,2-d]pyrimidin-4-yl)((R)-3-methoxypyrrolidin-1-yl)methanone]
16 | – | 399.70 | > 8.00 | < 6.30 | – | 7.00 to 7.30 | 7.00 to 7.30 | C[C@H](Nc1nc(C(=O)NC[C@@H](C)O)c2sc(C(F)(F)F)cc2n1)c1cncc(F)c1 [Example Z393, 2-(((S)-1-(5-Fluoropyridin-3-yl)ethyl)amino)-N—((R)-2-hydroxypropyl)-6-(trifluoromethyl)thieno[3,2-d]pyrimidine-4-carboxamide]
17 | – | 65.87 | 7.30 to 8.00 | < 6.30 | – | < 6.30 | < 6.30 | C[C@H](Nc1nc(C(=O)N2CC[C@@H](O)C2)c2sccc2n1)c1cncc(Cl)c1 [Example Z237, (2-(((S)-1-(5-Chloropyridin-3-yl)ethyl)amino)thieno[3,2-d]pyrimidin-4-yl)((R)-3-hydroxypyrrolidin-1-yl)methanone]
18 | – | 2.22 | 7.30 to 8.00 | 7.00 to 7.30 | – | 7.00 to 7.30 | 7.00 to 7.30 | C[C@H](Nc1nc(C(=O)NC(C)(C)C)c2sccc2n1)c1ccccn1 [Example Z201, (S)—N-(tert-Butyl)-2-((1-(pyridin-2-yl)ethyl)amino)thieno[3,2-d]pyrimidine-4-carboxamide]
